Results: patent publication US4335249A, “Herbicidal diphenyl ethers, sulfides, sulfoxides and sulfones” (Rohm and Haas Company, priority 1976, dated 1982)

Key:
Assay type in all cases: in vivo
[1] = system: cocklebur (Xanthium pensylvanicum); experiment: Preemergence herbicidal activity, cocklebur; conditions: Xanthium strumarium, pre-emergence, 336 h, 2 lb/A
Experimental: (§1) Using the procedure described below, compounds of the invention are evaluated for control of several of the following plant species:
(§2) The following est procedure is employed. Seeds of selected crops and weeds are planted in soil in flats. For preemergence tests, the flats are treated with the test compound immediately after the planting. For postemergence tests, the seeds are allowed to germinate, and after two weeks the flats are treated with the test compound. The compound to be evaluated is dissolved in acetone, diluted with water, and sprayed over the flats using a carrier volume equivalent to 50 gallons per acre at the rate of application (pounds per acre, lb/A.) specified in the tables. About two weeks after the application of the test compound, the state of growth of the plants is observed and the phytotoxic effect of the compound is evaluated. Tables III and IV give the average percent control achieved by test compounds in terms of the percent of the plants which are killed by the compounds.

marigold (Tagetes spp.) [2] = experiment: Preemergence herbicidal activity, marigold; conditions: pre-emergence, 336 h, 2 lb/A
Experimental: as §1, §2

[3] = system: morningglory (Ipomoca spp.); experiment: Preemergence herbicidal activity, morningglory; conditions: Ipomoea, pre-emergence, 336 h, 2 lb/A
Experimental: as §1, §2

[4] = system: tomato (Lycopersicon esculentum); experiment: Preemergence herbicidal activity, tomato; conditions: Solanum lycopersicum, pre-emergence, 336 h; Pre, 2 lb/A
Experimental: as §1, §2

[5] = system: velvetleaf (Abutilon theophrasti); experiment: Preemergence herbicidal activity, velvetleaf; conditions: Abutilon theophrasti, pre-emergence, 336 h; Pre, 2 lb/A
Experimental: as §1, §2

[6] = system: barnyardgrass (Echinochloa crusgalli); experiment: Preemergence herbicidal activity, barnyardgrass; conditions: Echinochloa crus-galli, pre-emergence, 336 h; Pre, 2 lb/A
Experimental: as §1
(§3) The following est procedure is employed. Seeds of selected crops and weeds are planted in soil in flats. For preemergence tests, the flats are treated with the test compound immediately after the planting. For postemergence tests, the seeds are allowed to germinate, and after two weeks the flats are treated with the test compound. The compound to be evaluated is dissolved in acetone, diluted with water, and sprayed over the flats using a carrier volume equivalent to 50 gallons per acre at the rate of application (pounds per acre, lb/A.) specified in the tables.

[7] = system: downybrome (Bromus tectorum); experiment: Preemergence herbicidal activity, downybrome; conditions: Bromus tectorum, pre-emergence, 336 h, Pre, 2 lb/A
Experimental: as §1, §2

foxtail (Setaria spp.) [8] = experiment: Preemergence herbicidal activity, foxtail; conditions: Setaria, pre-emergence, 336 h; Pre, 2 lb/A
Experimental: as §1, §2

[9] = system: yellow nutsedge (Cyperus esculentus); experiment: Preemergence herbicidal activity, yellow nutsedge; conditions: Cyperus, pre-emergence, 336 h, 2 lb/A
Experimental: as §1, §2

wild oats (Avena fatua) [10] = experiment: Preemergence herbicidal activity, wild oats; conditions: Avena fatua, pre-emergence, 336 h, Pre, 2 lb/A; read-out: % control, Wild oat
Experimental: as §1, §2

[11] = system: cocklebur (Xanthium pensylvanicum); experiment: Postemergence herbicidal activity, cocklebur; conditions: Xanthium strumarium, post-emergence, 336 h, 2 lb/A
Experimental: as §1, §2

marigold (Tagetes spp.) [12] = experiment: Postemergence herbicidal activity, marigold; conditions: post-emergence, 336 h, 2 lb/A
Experimental: as §1, §2

[13] = system: morningglory (Ipomoca spp.); experiment: Postemergence herbicidal activity, morningglory; conditions: Ipomoea, post-emergence, 336 h, 2 lb/A
Experimental: as §1, §2

[14] = system: tomato (Lycopersicon esculentum); experiment: Postemergence herbicidal activity, tomato; conditions: Solanum lycopersicum, post-emergence, 336 h, Post, 2 lb/A
Experimental: as §1, §2

[15] = system: velvetleaf (Abutilon theophrasti); experiment: Postemergence herbicidal activity, velvetleaf; conditions: Abutilon theophrasti, post-emergence, 336 h, 2 lb/A
Experimental: as §1, §3

[16] = system: barnyardgrass (Echinochloa crusgalli); experiment: Postemergence herbicidal activity, barnyardgrass; conditions: Echinochloa crus-galli, post-emergence, 336 h; Post, 2 lb/A
Experimental: as §1, §3

[17] = system: downybrome (Bromus tectorum); experiment: Postemergence herbicidal activity, downybrome; conditions: Bromus tectorum, post-emergence, 336 h, Post, 2 lb/A
Experimental: as §1, §2

foxtail (Setaria spp.) [18] = experiment: Postemergence herbicidal activity, foxtail; conditions: Setaria, post-emergence, 336 h, Post, 2 lb/A
Experimental: as §1, §2

[19] = system: yellow nutsedge (Cyperus esculentus); experiment: Postemergence herbicidal activity, yellow nutsedge; conditions: Cyperus, post-emergence, 336 h, 2 lb/A
Experimental: as §1, §2

wild oats (Avena fatua) [20] = experiment: Postemergence herbicidal activity, wild oats; conditions: Avena fatua, post-emergence, 336 h, Post, 2 lb/A; read-out: % control, Wild oat
Experimental: as §1, §2

| Structure (SMILES) | pest or weed control at 2241.7 g/ha [1] | pest or weed control at 2241.7 g/ha (marigold (Tagetes spp.) [2]) | pest or weed control at 2241.7 g/ha [3] | pest or weed control at 2241.7 g/ha [4] | pest or weed control at 2241.7 g/ha [5] | pest or weed control at 2241.7 g/ha [6] | pest or weed control at 2241.7 g/ha [7] | pest or weed control at 2241.7 g/ha (foxtail (Setaria spp.) [8]) | pest or weed control at 2241.7 g/ha [9] | pest or weed control at 2241.7 g/ha (wild oats (Avena fatua) [10]) | pest or weed control at 2241.7 g/ha [11] | pest or weed control at 2241.7 g/ha (marigold (Tagetes spp.) [12]) | pest or weed control at 2241.7 g/ha [13] | pest or weed control at 2241.7 g/ha [14] | pest or weed control at 2241.7 g/ha [15] | pest or weed control at 2241.7 g/ha [16] | pest or weed control at 2241.7 g/ha [17] | pest or weed control at 2241.7 g/ha (foxtail (Setaria spp.) [18]) | pest or weed control at 2241.7 g/ha [19] | pest or weed control at 2241.7 g/ha (wild oats (Avena fatua) [20]) |
| --- | --- | --- | --- | --- | --- | --- | --- | --- | --- | --- | --- | --- | --- | --- | --- | --- | --- | --- | --- | --- |
| CC(C#N)Oc1ccc(Oc2ccc(C(F)(F)F)cc2Cl)cc1 (centres unmarked) [Example 19, 2-[4-(2-chloro-4-trifluoromethylphenoxy)phenoxy] propionitrile] | 0% | 0% | 0% | 0% | 0% | 100% | 20% | 100% | 0% | 30% | 0% | 0% | 0% | 0% | 0% | 99% | 30% | 99% | 0% | 90% |
| CCOC(=O)C(CC)Oc1ccc(Oc2ccc(C(F)(F)F)cc2Cl)cc1 (centres unmarked) [Example 20] | 0% | 0% | 0% | 0% | 0% | 99% | 90% | 100% | 0% | 40% | 0% | 0% | 0% | 30% | 50% | 100% | 30% | 100% | 20% | 100% |
| CCNC(=O)C(C)Oc1ccc(Oc2ccc(C(F)(F)F)cc2Cl)cc1 (centres unmarked) [Example 21] | 0% | 0% | 0% | 0% | 0% | 100% | 90% | 100% | 0% | 40% | 0% | 0% | 0% | 0% | 0% | 100% | 30% | 100% | 0% | 99% |
| CC(C)OC(=O)C(C)Oc1ccc(Oc2ccc(C(F)(F)F)cc2Cl)cc1 (centres unmarked) [Example 22] | 0% | 0% | 0% | 0% | 0% | 100% | 95% | 100% | 0% | 60% | 30% | 30% | 20% | 99% | 40% | 100% | 99% | 100% | 0% | 100% |
